Columns and labels:
InhA enoylreductase = InhA enoylreductase (Mycobacterium tuberculosis, UniProt P9WGR1); experiment: InhA enoylreductase activity inhibition test (NADH disappearance at 340 nm); format: biochemical; details: read-out: InhA inhibition percentage; for inhibition at 10 µM: inhibitor concentration 10 μM, preincubation time 5 min
Experimental: The InhA protein was expressed in E. coli after cloning the inhA gene in a plasmidic vector of the pET type. Growing the resulting strain and inducing expression of the inhA gene with 1 mM IPTG (isopropyl β-D-thiogalactoside) leads to the production of water-soluble InhA protein at approximately 28.5 KDa (28,368 Da) (monomeric) which is purified by standard protein purification techniques. The enzyme is present in the form of a tetramer in solution and is kept in 50 mM Hepes buffer, 50% glycerol at −20° C.
The InhA enoylreductase activity is monitored by UV spectrometry, by monitoring the disappearance of the signal of the reduced cofactor NADH at 340 nm as a function of time. The percentage inhibition is calculated by subtracting from 100 the ratio of the initial speeds (V) measured during kinetics with and without inhibitor, multiplied by 100:% inhibition=100−(Vinhib/Vblank*100). The initial speed is measured by drawing the tangent to the curve DO=f(time) at time zero.
The enzymatic reaction is carried out in a final volume of 100 μl (in a quartz vessel, optical path 1 cm). The absorption of each reaction mixture is determined with a UVIKON 293 spectrophotometer (Bio-Tek Kontron Instruments) connected to a thermostatically controlled bath which makes it possible to maintain the temperature of the vessel at 25° C. A baseline is produced during preincubation immediately before measurements begin. The measurements are carried out over 3 min after a preincubation of 5 min or 2 h.
The preincubation is carried out in 90 μl (total volume) of a solution of PIPES buffer 30 mM, NaCl 150 mM, pH=6.8 at 25° C. containing 100 nM of InhA, 100 μM, 20 μM or 10 μM of the compound to be tested (or 500 nM of the pool of INH-NAD adducts constituting the control inhibitors) and 200 μM of NADH. After 5 min or 2 h of preincubation, the addition of 35 μM of the substrate 2-trans-decenoyl-CoA initiates the reaction. […]

[1] = system: Corynebacterium glutamicum; experiment: Growth inhibition of Corynebacterium glutamicum, MTT test
Experimental: The Corynebacterium glutamicum strain is cultivated in a BHI (Brain-Heart Infusion) medium at 30° C. with stirring at 200 rpm. The DO of the culture is measured directly and set to a value of 0.002-0.003 by dilution in the LB culture medium. C. glutamicum also grows in the LB medium, and this is used instead of BHI, which is strongly coloured and interferes with the DO reading at 570 nm.
The stock solutions are prepared in DMSO at a concentration 100 times greater than the highest concentration to be tested.
The test is carried out in the same way as the test on M. smegmatis.
The tests are carried out on 96-well NUNC microplates (Merck-eurolab). All the concentrations were tested at least twice.
Each well contains 100 μl of compound in solution in the culture medium (LB with 1% final DMSO). Subsequently, 100 μl of bacterial suspension having DO 0.002 at 650 nm are added.
The plate is sealed using parafilm and incubated at 30° C. for C. glutamicum. After two hours of incubation, 50 μl of a 1 mg/ml solution of tetrazolium salt (MTT) are added to each well. After one hour of incubation at 30° C. for C. glutamicum, 100 μl of lysis buffer are added to each well and the plate is left with stirring at ambient temperature until the solution is fully homogeneous.
The optical density is measured at 570 nm with a μQuant 96-well microplate spectrophotometer, Bio-tek Instruments, Inc.

Sequence of InhA enoylreductase (P9WGR1 whole entry, looked up): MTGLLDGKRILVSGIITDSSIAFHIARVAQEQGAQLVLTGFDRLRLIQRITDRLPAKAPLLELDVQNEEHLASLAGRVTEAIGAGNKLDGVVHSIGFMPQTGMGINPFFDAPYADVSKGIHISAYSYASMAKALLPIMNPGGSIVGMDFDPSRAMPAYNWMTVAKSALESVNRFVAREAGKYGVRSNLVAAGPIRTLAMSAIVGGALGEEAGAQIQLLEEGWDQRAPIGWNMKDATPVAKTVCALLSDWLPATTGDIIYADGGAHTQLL

For `CCCCCCCCCCCCOc1cccc(C2(O)NC(=O)c3cnccc32)c1` (centres unmarked) [Example 2, 1-(3-dodecyloxyphenyl)-1-hydroxy-1,2-dihydropyrrolo[3,4-c]pyridin-3-one], the inhibition at 100 µM (InhA enoylreductase; inhibitor concentration 100 μM, preincubation time 2 h (*)) was 80%.
With `CCCCCCCCCCCCc1cccc(C2(O)NC(=O)c3c[n+](CC(=O)OCC)ccc32)c1` (centres unmarked) [Example 3, 1-(3-dodecylphenyl)-5-[2-(ethyloxy)-2-oxoethyl]-1-hydroxy-3-oxo-1,2-dihydropyrrolo[3,4-c]pyridinium bromide] the inhibition at 10 µM (InhA enoylreductase) was 19%.
`CCCCCCCCCCCCc1cccc(C(=O)C2C=CN(CC(=O)OCC)C=C2C(N)=O)c1` (centres unmarked) [Example 4, ethy 3-aminocarbonyl-[4-(3-dodecylbenzoyl)-1,4-dihydro-pyridin-1-yl]acetate] showed an inhibition at 10 µM (InhA enoylreductase) of 25%.
With `NNC(=O)c1ccncc1` [Isoniazide] the IC50 ([1]; Corynebacterium glutamicum, read-out: CI50 (concentration corresponding to 50% inhibition) on the bacterial strain C. glutamicum) was over 5 mM and the “activity on C. glutamicum” value ([1]; at 5 mM) was “does not exhibit any activity”.

From US8710073B2, “Anti-infective derivatives, method for the production thereof, pharmaceutical compositions containing same and uses of said derivatives in treatment” (Centre National de la Recherche Scientifique (C.N.R.S.), priority 2008, dated 2014)
